In patent publication US20030060445A1, “Nutritional formulation containing prebiotic substances” (priority 2000, published 2003):

Columns and labels:
Assay type in all cases: cell-based
Clostridia [1] = test: Batch culture growth of Clostridia, titers on selective agar (Example 1); conditions: carbohydrate-deficient PYG batch culture, 37° C., anaerobic; supplement in place of glucose 3.0 g/L; FIG. 1
Experimental: (§1) Identical inoculua (A600∇1.0) of overnight cultures (PYG broth, 37° C., anaerobic) of each organism (Clostridia, Bacteroides, or B. lactis) were grown in batch culture (37° C., anaerobic) with constant stirring. Carbohydrate-deficient batch culture media (PYG) was supplemented with either glucose (3.0 g/L), oligofructose (FOS at 3.0 g/L), sialyllactose (3′- or 6′-sialyllactose at […]), or oligofructose plus sialyllactose (3.0 g/l and 100 mg/L, respectively). Growth was monitored at various time points (see FIG. 1) by determining the titers of the bacteria on selective agar (BIM-25 agar for Bifidobacteria and Wilkens-Chalgren agar for Clostridia and Bacteroides).

Bacteroides [2] = test: Batch culture growth of Bacteroides, titers on selective agar (Example 1); conditions: carbohydrate-deficient PYG batch culture, 37° C., anaerobic; supplement in place of glucose 3.0 g/L; FIG. 1
Experimental: as §1

Clostridia [3] = test: Media pH of Clostridia batch culture (Example 3); conditions: PYG batch culture, 37° C., anaerobic; pH monitored at various time points; FIG. 3
Experimental: (§2) Identical inoculua (A600∇1.0) of overnight cultures (PYG broth, 37° C., anaerobic) of each organism was grown in batch culture (37° C., anaerobic) with constant stirring. Carbohydrate-deficient batch culture media (PYG) was supplemented as above. The media pH were monitored at various time points.

Bacteroides [4] = test: Media pH of Bacteroides batch culture (Example 3); conditions: PYG batch culture, 37° C., anaerobic; pH monitored at various time points; FIG. 3
Experimental: as §2

B. lactis = test: Media pH of Bifidobacteria batch culture (Example 3); conditions: PYG batch culture, 37° C., anaerobic; pH monitored at various time points; FIG. 3
Experimental: as §2

Compound | growth of Clostridia (Clostridia [1]) | growth of Bacteroides (Bacteroides [2]) | media pH change, Clostridia culture (Clostridia [3]) | media pH change, Bacteroides culture (Bacteroides [4]) | media pH change, Bifidobacteria (B. lactis / B. infantis) culture (B. lactis)
CC(=O)N[C@H]1[C@H]([C@H](O)[C@H](O)CO)O[C@@](O[C@H]2[C@@H](O)[C@@H](CO)O[C@@H](O[C@H]3[C@H](O)[C@@H](O)C(O)O[C@@H]3CO)[C@@H]2O)(C(=O)O)C[C@@H]1O (some centres unmarked) [3′-sialyllactose] | essentially no growth | essentially no growth |  |  | 
sialyllactose |  |  | the pH increased | the pH increased | the pH increased
